Two compounds from patent publication US7129073B2, “Regulation of neuronal function through metabotropic glutamate receptor signaling pathways” (The Rockefeller University, priority 2001, dated 2006) can be followed below.

“Also recorded” adds a separate entry of the source.

What all share (format): cell-based, mouse
The test system of experiment [1] is voltage-dependent Ca2+ channels. Briefly: whole-cell recordings of voltage-dependent Ca2+ channels in dissociated neostriatal neurons. The conditions noted are these: for effect on basal Ca2+ currents / effect on the enhancement of Ca2+ currents by DHPG: CK1–7 100 μM, butyrolactone 25 μM (FIG. 6). The protocol:
Neostriatal neurons from 3- to 4-week-old mice were acutely dissociated by using procedures similar to those disclosed in Eberwine et al. (1995, Prog. Brain Res. 105:117–126). Whole-cell current recordings used standard voltage-clamp techniques. The internal solution consisted of 180 mM N-methyl-D-glucamine, 40 mM Hepes, 4 mM MgCl2, 0.5 mM 1,2-bis(2-aminophenoxy)ethane-N,N,N′,N′-tetraacetate, 12 mM phosphocreatine, 2 mM Na2ATP, 0.2 mM Na3GTP, 0.1 mM leupeptin (pH 7.2–7.3), 265–270 mosm/liter. The external solution consisted of 135 mM NaCl, 20 mM CsCl, 1 mM MgCl2, 10 mM Hepes, 0.001 mM tetrodotoxin, 5 mM BaCl2, 10 mM glucose (pH 7.3), 300–305 mosm/liter. Recordings were obtained with an Axon Instruments 200B patch clamp amplifier that was controlled and monitored with an IBM PC running PCLAMP™ (v. 8) with a DigiData 1320 series interface (Axon Instruments, Foster City, Calif.). Electrode resistances were typically 2–4 MΩ in the bath. After seal rupture, series resistance (4–10 MΩ) was compensated (70–90%) and periodically monitored. Drugs were applied with a gravity-fed “sewer pipe” system. The array of application capillaries was positioned 250 μm from the cell under study. Solution changes were effected by altering the position of the array with a DC drive system controlled by a microprocessor-based controller (Newport-Klinger, Irvine, Calif.). Data analyses were performed with AXOGRAPH™ (Axon Instruments), […]™ (Albeck Software, Reading, Pa.), and […]™ (Abacus Concepts, Berkeley, Calif.).

For experiment [2], the system named is Cdk5. Description: Cdk5 kinase activity immunoprecipitated from neostriatal slices, histone H-1 as substrate. The method, then:
(§1) Neostriatal slices were prepared from male C57/BL6 mice (6–8 weeks old) in accordance with methods known in the art (Nishi, A. et al. 1997, J. Neurosci. 17:8147–8155). Slices were treated with a drug. After drug treatment, slices were immediately frozen in liquid nitrogen, and stored at −80° C. until assayed.
For Cdk5 immunoprecipitation, striatal tissue slices (approximately 150 μg total protein) were lysed using a Dounce homogenizer and 1 ml of lysis buffer (150 mM NaCl, 20 mM Tris-HCl (pH 7.4), 1 mM EDTA, 0.5% NP-40, 5 mM NaF, 5 mM Na3PO4 and protease inhibitors). Lysates were centrifuged at 10,000 g for 10 minutes at 4° C. Supernatants were pre-cleared by adding rabbit IgG-conjugated agarose for 40 minutes at 4° C. Ten μl of Cdk5 antibody conjugated to agarose were added and samples were incubated for 1 hour at 4° C. with mixing. Agarose pellets were collected and washed three times with 1 ml of lysis buffer and two times with kinase assay buffer (50 mM Hepes (pH 7.5), 10 mM MgCl2, 1 mM DTT). Cdk5 kinase assays were performed in a 30-μl reaction mixtures with 2 μg Histone H-1, 500 μM ATP and 5 μCi of γ-^32P-ATP. Samples were incubated at 30° C. for 10 minutes, reactions were stopped by addition of SDS-sample buffer, and samples were boiled for 5 minutes. Samples were separated by SDS-PAGE and analyzed as disclosed above for CKI assays. Data were analyzed by Student's t-test in Microsoft Excel software as indicated, with significance defined as p<0.05.
CK1 assays were performed in a 30 μl assay volume with 2 μg of purified DARPP-32, 500 μM ATP and 5 μCi γ-^32P-ATP. Reactions were started by addition of the ATP. Samples were incubated at 30° C. for 10 min and reactions were stopped by addition of SDS-sample buffer and boiled for 5 min. Samples were separated by SDS-PAGE (12% polyacrylamide). SDS-PAGE gels were dried and exposed to Kodak film for autoradiography. Results were quantified using a Molecular Dynamics PHOSPHORIMAGER™. Immunoprecipitation and assay of Cdk5 were performed as disclosed (20).

Experiment [3] has as its system Thr75 of DARPP-32 (Cdk5 site). Briefly: DARPP-32 phospho-Thr75 immunoblot in neostriatal slices. The method, then:
as §1
(§2) Frozen slices were sonicated in hot homogenization buffer containing 1% SDS and 50 mM NaF, and samples were boiled for 10 minutes. SDS-PAGE sample buffer was then added and samples were boiled for 5 minutes. Samples (approximately 120 μg of total protein) were separated by SDS-PAGE (10% polyacrylamide) and then transferred to nitrocellulose. In most studies, immunoblots were first probed with anti-phospho-Ser137 DARPP-32 antibody. The blots were then stripped and probed with anti-phospho-Thr75 DARPP-32 antibody. Blots were stripped again and probed with anti-total DARPP-32 antibody. […] Chemiluminescence was detected by autoradiography and bands were quantified by analysis of scanned images using NIH IMAGE 1.52 software. Data were statistically analyzed by Student's t test in Microsoft EXCEL™ software as indicated.
(§3) Neostriatal slices were prepared from male C57/BL6 mice (6–8 weeks old) as disclosed (22). Slices were treated with drugs as specified in the text and figure legends. After drug treatment, slices were immediately frozen in liquid nitrogen, and stored at −80° C. until assayed.
(§4) Frozen slices were sonicated in hot homogenization buffer containing 1% SDS and 50 mM NaF, and samples were boiled for 10 min. SDS-PAGE sample buffer was then added and samples were boiled for 5 min. Samples (approximately 120 μg protein) were separated by SDS-PAGE (10% polyacrylamide) and transferred to nitrocellulose. Immunoblots were first probed with antiphospho-Ser-137 DARPP-32 antibody. The blots were stripped and probed with anti-phosphoThr-75 DARPP-32 antibody. Blots were stripped again and probed with anti-total DARPP-32 antibody. Antibody binding was detected by enhanced chemiluminescence (ECL) using X-ray film, and images were analyzed by laser scanning densitometry using NIH Image 1.52 software. Data were statistically analyzed by Student's t-test using Microsoft EXCEL™ software as indicated.

Experiment [4] relates to Ser137 of DARPP-32 (CK1 site). Description: DARPP-32 phospho-Ser137 immunoblot in neostriatal slices. The protocol:
as §1, §2, §3, §4
In general terms: Immunoblotting shows a protein as a band on a membrane.

Where [5] appears, read: DHPG 100 μM, group I mGluR activation.
The mark [6] stands for this setting: slices treated with drug alone: DHPG 100 μM, ionomycin 2 μM.
Where [7] appears, read: 50 μM CKI-7, 30 min before DHPG 2 min.
Setting [8] is: CKI-7 100 to 300 μM, 30 min before DHPG 2 min.

For the compound `N[C@H](C(=O)O)c1cc(O)cc(O)c1` [DHPG, (S)-3,5-Dihydroxyphenylglycine], the “time to enhancement of Ca2+ currents” value in experiment [1] (DHPG) was ≤ 90 s. The “effect on Ca2+ currents” value in experiment [1] (DHPG 100 μM, wild-type neurons) is listed as “enhanced; also recorded: increased”. Further, the “effect of DHPG on Ca2+ channels in neurons from DARPP-32 knock-out mice” value in experiment [1] (DHPG 100 μM, nine out of ten neurons) is given as “completely eliminated; also recorded: no effect”. For the same compound, the “effect on Cdk5 kinase activity” value in experiment [2] (DHPG treatment of slices) is recorded as “rapid but transient increase; also recorded: increased”. Further, the “increase in Cdk5 activity” value in experiment [2] (DHPG, after 2 minutes, back to basal level after 5 minutes) was “approximately 4 fold”. Moreover, in experiment [3] (setting [5]), the “increase in phosphorylation of Thr75” value is 2–3 fold. Besides, in experiment [3] (setting [6]), the “effect on phosphorylation of Thr75 in DARPP-32” value is “rapid but transient increase”. In addition, the “increase in phosphorylation of Ser137” value in experiment [4] (setting [5]) was 2–3 fold. Also, in experiment [4] (DHPG 100 μM, back to basal level by 5 minutes), the “time of peak level of phosphorylation of Ser137” value stood at 2 min. In addition, the “effect on phosphorylation of Ser137 in DARPP-32” value in experiment [4] (setting [6]) is recorded as “rapid but transient increase”.

As to `NCCNS(=O)(=O)c1ccc(Cl)c2ccncc12` [CKI-7], the “effect on basal Ca2+ currents” value in experiment [1] is “significant reduction”; in experiment [1] (listed as CK1–7), “reduced”. Further, the “effect on the enhancement of Ca2+ currents by DHPG” value in experiment [1] (DHPG 100 μM) is recorded as “eliminated”; in experiment [1] (DHPG 100 μM, listed as CK1–7) it was “attenuated”. Besides, the “effect of pretreatment on the effect of DHPG on Cdk5 kinase activity” value in experiment [2] (CKI-7 dose-dependent, U73122 10 μM, BAPTA/AM 20 μM, cyclosporin A 5 μM) is listed as “attenuated”. Besides, the “effect on basal or DHPG-stimulated DARPP-32 phosphorylation at Thr75” value in experiment [3] (setting [7]) is “little effect”. Besides, the “effect on basal and DHPG-stimulated DARPP-32 phosphorylation at Thr75” value in experiment [3] (setting [8]) is listed as “dose-dependent decreases”. Further, the “effect on basal or DHPG-stimulated DARPP-32 phosphorylation at Ser137” value in experiment [4] (setting [7]) is recorded as “little effect”. In addition, the “effect on basal and DHPG-stimulated DARPP-32 phosphorylation at Ser137” value in experiment [4] (setting [8]) is recorded as “dose-dependent decreases”.
